Measured values from patent publication US4193997A, “Thieno[2,3-c] and [3,2-c]pyridines, process for their preparation and therapeutic applications thereof” (Parcor, priority 1977, dated 1980).

Legend:
[1] = system: A.D.P.-induced blood-platelet aggregation; experiment: A.D.P.-induced blood-platelet aggregation after oral treatment of rats; type: in vivo, Wistar rats; settings: Rattus norvegicus, 100 mg/kg oral, 3 hrs after treatment, 10 μM A.D.P. solution, read-out: Percent inhibition of blood-platelet aggregation, A.D.P.
Experimental: (§1) Blood is taken from the jugular vein of Wistar rats. From this citrated blood, and after centrifugation, a plasma containing 600,000±20,000 blood-platelets per mm 3 is reconstituted, which plasma is used in all aggregation determinations.
(§2) 0.4 ml plasma is placed in a siliconized tube provided with a magnet bar which is also siliconized. The tube is introduced into an aggregometer connected to an apparatus which records the optical density variations. When light transmission reaches a stable value, 0.5 ml of a solution containing 10 μM A.D.P. (adenosine diphosphate) is introduced into the tube.
Blood-platelet aggregation then induces an increase of light transmission, followed by a decrease subsequent to the disaggregation stage.
The maximal optical density variation thus determined characterizes the extent of the aggregation.
(§3) Different groups of 20 rats each are used. Each group is orally administered a test derivative, at a dosage of 100 mg/kg. The results obtained during both tests are reported in following Table I which indicates the percent inhibition of blood-platelet aggregation obtained with respect to the reference group, 3 hrs after treatment.

[2] = system: ovalbumin-induced systemic edema; experiment: Ovalbumin-induced systemic edema method; type: in vivo; settings: rats, 100 mg/kg oral one hour before and with ovalbumin
Experimental: Rats are administered a simultaneous intraperitoneal injection of 1 ml ovalbumin and 0.5 ml of a 1% aqueous Evans Blue solution. The animals of the treated group are additionally orally administered 100 mg/kg of the test derivative, one hour prior to ovalbumin administration and then simultaneously with said ovalbumin administration. The intensity of the phenomenon thus induced is rated according to a scale from 1 to 5, according to the progress of the inflammatory syndrome. The determinations are effected after 2 hours and after 3 hours. Thus are determined the mean intensity of the edema and the percent decrease of the edema reaction.

[3] = system: carrageenin-induced edema; experiment: Localized carrageenin-induced edema method; type: in vivo; settings: rats, 100 mg/kg oral one hour before, with, and 1 and 2.5 hours after carrageenin
Experimental: 0.1 ml of a 1% carrageenin solution is injected at time O in the metatarsal flexor muscles of the right hind limb of rats.
The animals of the treated group are additionally orally administered 100 mg/kg of the test derivative, respectively one hour prior to, and then simultaneously with the phlogogenic agent, and then one hour and 2.5 hours thereafter. The determinations effected with a ROCH micrometer at times 0, 1 hr, 2 hrs, 3 hrs and 5 hrs after carrageenin administration make it possible to determine the percent anti-inflammatory activity, as a function of time.

[4] = system: mouse; experiment: Antalgic action, mechanical stimulation method according to Haffner; type: in vivo; settings: 100 mg/kg oral
Experimental: (a) Mechanical stimulation method according to Haffner (Deutsch. Wish., 1959, 55, 731-733). This method comprises placing a pressure forceps at the base of the tail of a mouse and recording the number of bites self-inflicted by the animal in its endeavour to remove the forceps. The decrease of the number of bites prior and subsequent to oral administration of the test compound at a dosage of 100 mg/kg provides a measure of the antalgic activity of the derivatives of this invention.

[5] = system: collagen-induced blood-platelet aggregation; experiment: Collagen-induced blood-platelet aggregation after oral treatment of rats; type: in vivo, Wistar rats; settings: Rattus norvegicus, 100 mg/kg oral, 3 hrs after treatment, collagen (bovine tendon extract), read-out: Percent inhibition of blood-platelet aggregation, Collagen
Experimental: as §1, §2
The A.D.P. solution is substituted with a collagen solution (bovine tendon extract).
as §3

[6] = system: mice; experiment: Antalgic action, acetic acid method according to Koster, Anderson & de Beer; type: in vivo; settings: 100 mg/kg oral, 30 minutes prior to i.p. acetic acid
Description: (b) Acetic acid method, according to Koster, Anderson & de Beer (Fed. Proced., 18, 1959, 412, 1, 626)
Intraperitoneal injection of a dilute acetic acid solution induces, in mice, characteristic writhing movements which are repeated due to the effect of pain.

| SMILES | inhibition at 100 mg/kg [1] | Percent decrease of the edema reaction After 2 hours [2] | Percent decrease of the edema reaction After 3 hours [2] | Percent anti-inflammatory activity after 1 hour [3] | Percent anti-inflammatory activity after 2 hours [3] | Percent anti-inflammatory activity After 3 hours [3] | mean percent antalgia after 30 min. [4] | mean percent antalgia after 1 hr [4] | mean percent antalgia after 2 hrs [4] | mean percent antalgia after 3 hrs [4] | inhibition at 100 mg/kg [5] | percent antalgia [6] |
| --- | --- | --- | --- | --- | --- | --- | --- | --- | --- | --- | --- | --- |
| O=C1c2ccsc2CCN1Cc1ccccc1 [Derivative n°2, 4-Oxo-5-benzyl-4,5,6,7-tetrahydro-thieno[3,2-c]pyridine] | 61.5% | 42% | 50% | 36% | 47% | 53% | 71% | 65% | 58% | 51% | 91.2% | 68% |
| CC(=O)N1CCc2sccc2C1=O [Derivative n°5, 4-Oxo-5-acetyl-4,5,6,7-tetrahydro-thieno[3,2-c]pyridine] | 63.2% | 38% | 47% | 39% | 51% | 55% | 66% | 60% | 54% | 48% | 92.6% | 64% |
| O=C1NCCc2sccc21 [Derivative n°7, 4-Oxo-4,5,6,7-tetrahydro-thieno[3,2-c]pyridine] | 62.3% | 51% | 63% | 44% | 55% | 63% | 78% | 76% | 72% | 64% | 92.6% | 75% |
| COc1cc(COC(=O)C2Cc3sccc3C(=O)N2Cc2cc(OC)c(OC)c(OC)c2)cc(OC)c1OC (stereo not drawn) [Derivative n°15, 4-Oxo-6-(3,4,5-trimethoxy-benzyloxycarbonyl)-5-(3,4,5-trimethoxybenzyl)-4,5,6,7-tetrahydro-thieno[3,2-c]pyridine] | 61.8% | 48% | 58% | 40% | 52% | 57% | 73% | 67% | 63% | 56% | 91.6% | 69% |
